Data published in patent US20240368120A1 (Terns Pharmaceuticals, Inc., priority 2023, published 2024).

Molecular target: T1, human GLP-1R receptor (Homo sapiens, UniProt P43220)
T1 construct: expressed in transfected cells
Assay: GLP-1R low expression cell assay (cAMP TR-FRET, CHO-K1_hGLP-1Rlow_clone10 cells)
Format: cell-based
Conditions: for EC50: cAMP TR-FRET, 30 min at 25° C.; for Emax / GLP-1R Low Expression Cell Assay Emax (%): maximum activation relative to control GLP-1 peptide agonist
How it was run: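 CHO-K1 cells stably expressing low surface human GLP-1R (clone10), 1,000 cells/well, exposed to 10-point 3-fold compound dilutions for 30 min at 25 °C. cAMP measured by TR-FRET (Eu-cAMP tracer/ULight-anti-cAMP, 15 min). EC50 from Hill fit of duplicate percent activation relative to a parallel GLP-1 control agonist.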

T1 sequence (P43220 24-463): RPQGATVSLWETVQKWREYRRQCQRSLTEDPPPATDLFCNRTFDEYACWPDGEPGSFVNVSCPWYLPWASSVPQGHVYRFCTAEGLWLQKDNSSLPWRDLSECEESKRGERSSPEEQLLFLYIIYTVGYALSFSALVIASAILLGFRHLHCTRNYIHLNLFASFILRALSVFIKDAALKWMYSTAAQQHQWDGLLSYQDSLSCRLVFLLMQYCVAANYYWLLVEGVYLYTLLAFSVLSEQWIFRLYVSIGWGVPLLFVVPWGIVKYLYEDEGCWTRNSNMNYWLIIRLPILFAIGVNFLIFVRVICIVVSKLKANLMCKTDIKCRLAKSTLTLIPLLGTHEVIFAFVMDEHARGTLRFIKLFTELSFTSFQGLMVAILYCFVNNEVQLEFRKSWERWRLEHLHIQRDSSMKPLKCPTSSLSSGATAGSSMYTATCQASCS

| Compound | EC50 | Emax | GLP-1R Low Expression Cell Assay Emax (%) |
| --- | --- | --- | --- |
| Cn1c(CN2CCC(c3cccc(OCc4ccc(Cl)cc4F)n3)CC2)nc2c(OC(F)F)cc(-c3n[nH]c(=O)o3)cc21 [Compound 234, 5-(2-((4-(6-((4-Chloro-2-fluorobenzyl)oxy)pyridin-2-yl)piperidin-1-yl)methyl)-4-(difluoromethoxy)-1-methyl-1H-benzo[d]imidazol-6-yl)-1,3,4-oxadiazol-2 (3H)-one] | > 1 µM | < 25% | – |
| Cn1c(CN2CCC(c3cccc(OCc4ccc(F)cc4)n3)CC2)nc2c(OC(F)F)cc(C(=O)O)cc21 [Compound 254, 4-(Difluoromethoxy)-2-((4-(6-((4-fluorobenzyl)oxy)pyridin-2-yl)piperidin-1-yl)methyl)-1-methyl-1H-benzo[d]imidazole-6-carboxylic acid] | 0.1 to 1 µM | – | – |
| Cn1c(CN2CCC(c3cccc(OCc4ccc(Cl)c5c4OCC5)n3)CC2)nc2c(OC(F)F)cc(C(=O)O)cc21 [Compound 331, 2-((4-(6-((4-Chloro-2,3-dihydrobenzofuran-7-yl)methoxy)pyridin-2-yl)piperidin-1-yl)methyl)-4-(difluoromethoxy)-1-methyl-1H-benzo[d]imidazole-6-carboxylic acid] | 0.01 to 0.1 µM | > 85% | – |
| CC(CO)Oc1cc(C(=O)O)cc2c1nc(CN1CCC(c3cccc(OCc4ccc(Cl)cc4F)n3)CC1)n2C (stereo not shown) [Compound 320, 2-((4-(6-((4-Chloro-2-fluorobenzyl)oxy)pyridin-2-yl)piperidin-1-yl)methyl)-4-((1-hydroxypropan-2-yl)oxy)-1-methyl-1H-benzo[d]imidazole-6-carboxylic acid] | 0.01 to 0.1 µM | > 85% | – |
| N#Cc1ccc(COc2cccc(C3CCN(Cc4nc5ccc(C(=O)O)c(O)c5n4C[C@@H]4CCO4)CC3)n2)c(F)c1 [Compound 377, (S)-2-((4-(6-((4-Cyano-2-fluorobenzyl)oxy)pyridin-2-yl)piperidin-1-yl)methyl)-7-hydroxy-1-(oxetan-2-ylmethyl)-1H-benzo[d]imidazole-6-carboxylic acid] | < 0.01 µM | – | ++++ (Emax is >85%) |
| Cn1c(CN2CCC(c3nc(OCc4ccc(Cl)cc4F)ccc3F)CC2)nc2c(OC(F)F)cc(C(=O)O)cc21 [Compound 243, 2-((4-(6-((4-Chloro-2-fluorobenzyl)oxy)-3-fluoropyridin-2-yl)piperidin-1-yl)methyl)-4-(difluoromethoxy)-1-methyl-1H-benzo[d]imidazole-6-carboxylic acid] | 0.1 to 1 µM | 50 to 85% | – |
| Cn1c(CN2CCC(c3ccc4c(c3)N(Cc3ccc(Cl)cc3F)CCO4)CC2)nc2c(OC(F)F)cc(C(=O)O)cc21 [Compound 373, 2-((4-(4-(4-Chloro-2-fluorobenzyl)-3,4-dihydro-2H-benzo[b][1,4]oxazin-6-yl)piperidin-1-yl)methyl)-4-(difluoromethoxy)-1-methyl-1H-benzo[d]imidazole-6-carboxylic acid] | > 1 µM | < 25% | – |
| COc1cc(C#N)ccc1COc1cccc(C2CCN(Cc3nc4c(OC)cc(C(=O)O)cc4n3C)CC2)n1 [Compound 344, 2-((4-(6-((4-Cyano-2-methoxybenzyl)oxy)pyridin-2-yl)piperidin-1-yl)methyl)-4-methoxy-1-methyl-1H-benzo[d]imidazole-6-carboxylic acid] | < 0.01 µM | > 85% | – |
| COc1cc(C(=O)O)cc2c1nc(N(C)[C@H]1CC[C@@H](c3cccc4c3O[C@@](C)(c3ccc(Cl)cn3)O4)CC1)n2C[C@@H]1CCO1 [Compound 79, 2-(((1R,4R)-4-((S)-2-(5-chloropyridin-2-yl)-2-methylbenzo[d][1,3]dioxol-4-yl)cyclohexyl)(methyl)amino)-4-methoxy-1-(((S)-oxetan-2-yl)methyl)-1H-benzo[d]imidazole-6-carboxylic acid] | 0.1 to 1 µM | > 85% | – |
| Cn1c(CN2CCC(c3cccc(OCc4cnc(C#N)cc4F)n3)CC2)nc2c(OC(F)F)cc(C(=O)O)cc21 [Compound 350, 2-((4-(6-((6-Cyano-4-fluoropyridin-3-yl)methoxy)pyridin-2-yl)piperidin-1-yl)methyl)-4-(difluoromethoxy)-1-methyl-1H-benzo[d]imidazole-6-carboxylic acid] | 0.1 to 1 µM | > 85% | – |
| N#Cc1ccc(COc2cccc(C3CCN(Cc4nc5ccc(C(=O)O)c6c5n4CCO6)CC3)n2)c(F)c1 [Compound 104, 2-((4-(6-((4-Cyano-2-fluorobenzyl)oxy)pyridin-2-yl)piperidin-1-yl)methyl)-3,4-dihydro-5-oxa-1,2a-diazaacenaphthylene-6-carboxylic acid] | 0.1 to 1 µM | > 85% | – |
| COc1cc(-c2nnn[nH]2)cc2c1nc(CN1CCC(c3cccc(OCc4ccc(Cl)cc4F)n3)CC1)n2C[C@@H]1CCO1 [Compound 279, (S)-2-((4-(6-((4-Chloro-2-fluorobenzyl)oxy)pyridin-2-yl)piperidin-1-yl)methyl)-4-methoxy-1-(oxetan-2-ylmethyl)-6-(1H-tetrazol-5-yl)-1H-benzo[d]imidazole] | < 0.01 µM | 50 to 85% | – |
| COc1cc(C(=O)O)cc2c1nc(Cc1cc(F)c(-c3cccc(OCc4ccc(Cl)cc4F)n3)cc1F)n2C [Compound 282, 2-(4-(6-((4-Chloro-2-fluorobenzyl)oxy)pyridin-2-yl)-2,5-difluorobenzyl)-4-methoxy-1-methyl-1H-benzo[d]imidazole-6-carboxylic acid] | < 0.01 µM | > 85% | – |
| O=C(O)c1ccc2c(nc(CN3CCC(c4cccc(OCc5ccc(Cl)cc5F)n4)CC3)n2C[C@@H]2CCO2)c1OC(F)F [Compound 191, (S)-2-((4-(6-((4-chloro-2-fluorobenzyl)oxy)pyridin-2-yl)piperidin-1-yl)methyl)-4-(difluoromethoxy)-1-(oxetan-2-ylmethyl)-1H-benzo[d]imidazole-5-carboxylic acid] | 0.1 to 1 µM | > 85% | – |
| CCOc1cc(C(=O)O)cc2c1nc(CN1CCC(c3cccc4c3OC[C@H](c3ccc(C#N)cc3F)O4)CC1)n2C [Compound 277, (S)-2-((4-(2-(4-Cyano-2-fluorophenyl)-2,3-dihydrobenzo[b][1,4]dioxin-5-yl)piperidin-1-yl)methyl)-4-ethoxy-1-methyl-1H-benzo[d]imidazole-6-carboxylic acid] | > 1 µM | 50 to 85% | – |
| Cn1c(Cc2ccc(-c3cccc(OCc4ccc(Cl)cc4F)n3)cc2F)nc2c(OC(F)F)cc(C(=O)O)cc21 [Compound 198, 2-(4-(6-((4-Chloro-2-fluorobenzyl)oxy)pyridin-2-yl)-2-fluorobenzyl)-4-(difluoromethoxy)-1-methyl-1H-benzo[d]imidazole-6-carboxylic acid] | 0.01 to 0.1 µM | > 85% | – |
| CCOc1cc(-c2nnn[nH]2)cc2c1nc(CN1CCC(c3cccc(OCc4ccc(C#N)cc4F)n3)CC1)n2C [Compound 273, 4-(((6-(1-((4-ethoxy-1-methyl-6-(1H-tetrazol-5-yl)-1H-benzo[d]imidazol-2-yl)methyl)piperidin-4-yl)pyridin-2-yl)oxy)methyl)-3-fluorobenzonitrile] | < 0.01 µM | > 85% | – |
| [2H]C([2H])(C)Oc1cc(C(=O)O)cc2c1nc(C([2H])([2H])N1CCC(c3cccc(OC([2H])([2H])c4ccc(Cl)cc4F)n3)CC1)n2C [Compound 381, 2-((4-(6-((4-Chloro-2-fluorophenyl)methoxy-d2)pyridin-2-yl)piperidin-1-yl)methyl-d2)-4-(ethoxy-1,1-d2)-1-methyl-1H-benzo[d]imidazole-6-carboxylic acid] | < 0.01 µM | > 85% | – |
| Cn1c(CN2CC=C(c3cccc(OCc4ccc(Cl)cc4F)n3)CC2)nc2c(OC(F)F)cc(C(=O)O)cc21 [Compound 155, 2-((6-((4-Chloro-2-fluorobenzyl)oxy)-3′,6′-dihydro-[2,4′-bipyridin]-1′(2′H)-yl)methyl)-4-(difluoromethoxy)-1-methyl-1H-benzo[d]imidazole-6-carboxylic acid] | 0.01 to 0.1 µM | > 85% | – |
| COc1cc(C(=O)O)cc2c1nc(CN1CCC(c3cccc4c3O[C@H](c3ccc(C#N)cc3F)CO4)CC1)n2C [Compound 310, (R)-2-((4-(3-(4-cyano-2-fluorophenyl)-2,3-dihydrobenzo[b][1,4]dioxin-5-yl)piperidin-1-yl)methyl)-4-methoxy-1-methyl-1H-benzo[d]imidazole-6-carboxylic acid] | 0.01 to 0.1 µM | > 85% | – |
| Cn1c(CN2CCC(c3ccc(F)c(OCc4ccc(Cl)cc4F)n3)CC2)nc2c(OC(F)F)cc(C(=O)O)cc21 [Compound 242, 2-((4-(6-((4-Chloro-2-fluorobenzyl)oxy)-5-fluoropyridin-2-yl)piperidin-1-yl)methyl)-4-(difluoromethoxy)-1-methyl-1H-benzo[d]imidazole-6-carboxylic acid] | 0.01 to 0.1 µM | > 85% | – |
| N#Cc1ccc(COc2cccc(C3CCN(Cc4nc5ccc(C(=O)O)c(O)c5n4C[C@@H]4CCO4)CC3)n2)c(F)c1 [Compound 172, (S)-2-((4-(6-((4-cyano-2-fluorobenzyl)oxy)pyridin-2-yl)piperidin-1-yl)methyl)-7-hydroxy-1-(oxetan-2-ylmethyl)-1H-benzo[d]imidazole-6-carboxylic acid] | – | – | + (Emax is <25%) |
| Cn1c(CN2CCC(c3ccc4ccn(Cc5ccc(Cl)cc5F)c4n3)CC2)nc2c(OC(F)F)cc(C(=O)O)cc21 [Compound 205, 2-((4-(1-(4-Chloro-2-fluorobenzyl)-1H-pyrrolo[2,3-b]pyridin-6-yl)piperidin-1-yl)methyl)-4-(difluoromethoxy)-1-methyl-1H-benzo[d]imidazole-6-carboxylic acid] | > 1 µM | 50 to 85% | – |
| COc1cc(C(=O)O)c(F)c2c1nc(CN1CCC(c3ccc(F)c(OCc4ccc(Cl)cc4F)c3)CC1)n2C [Compound 340, 2-((4-(3-((4-Chloro-2-fluorobenzyl)oxy)-4-fluorophenyl)piperidin-1-yl)methyl)-7-fluoro-4-methoxy-1-methyl-1H-benzo[d]imidazole-6-carboxylic acid] | 0.01 to 0.1 µM | > 85% | – |
